# From publication PMC10363607, “Identification of novel and potent dual-targeting HDAC1/SPOP inhibitors using structure-based virtual screening, molecular dynamics simulation and evaluation of in vitro and in vivo antitumor activity” (Frontiers in Pharmacology, 2023)
# “Also recorded” adds a separate entry of the source. Read-outs that look alike come from different tables or passages of the source.
# How the values were obtained:
# [1] = target: T1, HDAC1 (Homo sapiens, UniProt Q13547); assay: In vitro HDAC1 inhibition, fluorescent substrate Boc-Lys(acetyl)-AMC; assay type: biochemical
# T1 construct: purchased Abcam
# T1 sequence (Q13547 whole entry): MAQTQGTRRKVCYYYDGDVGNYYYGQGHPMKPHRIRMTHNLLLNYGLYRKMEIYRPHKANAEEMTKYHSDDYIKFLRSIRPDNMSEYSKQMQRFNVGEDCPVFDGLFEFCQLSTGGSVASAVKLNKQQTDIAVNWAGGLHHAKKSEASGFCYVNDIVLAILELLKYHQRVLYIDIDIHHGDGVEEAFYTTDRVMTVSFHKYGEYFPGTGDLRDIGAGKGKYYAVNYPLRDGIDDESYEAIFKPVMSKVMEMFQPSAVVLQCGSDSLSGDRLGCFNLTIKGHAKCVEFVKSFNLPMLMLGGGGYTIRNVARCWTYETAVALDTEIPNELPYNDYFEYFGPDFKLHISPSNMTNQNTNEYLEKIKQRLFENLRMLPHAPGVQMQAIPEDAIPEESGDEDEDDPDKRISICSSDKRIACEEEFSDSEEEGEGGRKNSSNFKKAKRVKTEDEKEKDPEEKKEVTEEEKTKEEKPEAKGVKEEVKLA
# Description: In the 96-well plates, different concentrations of the tested compound (50 μL) were added to 10 μl of HDAC1 enzyme solution. After incubation at 37°C for 5 min, 40 μl of the fluorescent substrate Boc-Lys (acetyl)-AMC was then added to the mixture. The plates were incubated at 37°C for 0.5 h, and the developer (100 μl) containing trypsin and TSA was added to the mixture. Finally, the fluorescence intensity at wavelengths of 390 nm and 460 nm was measured 20 min later by a microplate reader (Perkin Elemer).
# (§1) All experiments were performed in triplicate. Competition binding data were analyzed using GraphPad Prism 6.0 software (GraphPad Software Inc, San Diego, CA) and the inhibition constants (IC50) were calculated by nonlinear curve fitting.
# [2] = target: T2, SPOP (Homo sapiens, UniProt O43791); assay: SPOP fluorescence polarization (FP) competition assay with FITC-puc_SBC1; assay type: binding
# T2 construct: purchased Abcam
# T2 sequence (O43791 23-337): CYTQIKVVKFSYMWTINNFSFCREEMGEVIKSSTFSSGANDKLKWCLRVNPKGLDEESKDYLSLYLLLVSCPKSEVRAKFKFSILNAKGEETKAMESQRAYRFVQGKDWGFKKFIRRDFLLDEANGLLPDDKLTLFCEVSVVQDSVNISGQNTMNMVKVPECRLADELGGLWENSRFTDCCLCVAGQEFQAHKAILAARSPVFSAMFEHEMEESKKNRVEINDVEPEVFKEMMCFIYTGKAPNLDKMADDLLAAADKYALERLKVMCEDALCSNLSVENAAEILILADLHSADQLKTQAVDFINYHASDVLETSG
# Description: The enzymatic activity of SPOP was determined by a previously described fluorescence polarization (FP) assay ([Guo et al., 2016]). FITC-labeled peptide substrate puc_SBC1 (FITC-puc_SBC1, FITC-[…]) was purchased (GL Biochem Ltd, Shanghai). Serial dilutions of competitors for SPOP23-337 were prepared from the 20 mM DMSO stocks. The diluted compound was added to the reaction mixture in 100 μl of HEPES (25 mM, pH 7.5) containing 10 μM SPOP and 50 nM FITC-puc_SBC1. After incubation for 1 h at 4°C, FP was measured on a microplate reader (Perkin Elemer) using the wavelengths of 480 nm for excitation and 535 nm for emission, respectively.
# as §1
# [3] = tested on: SPOP and HDAC levels in A498 cells; assay: Western blot of SPOP and HDAC levels in A498 cells; assay type: cell-based; details: A498 cells, 0, 0.5 and 2 μM, 72 h
# Description: (§2) The tumor cells (10^6 cells/well) were seeded onto 6-well plates and allowed to culture for 24 h. The cells were incubated with various concentrations (0, 0.5 and 2 μM) of HS-2 at 37°C for 72 h. Tumor cells were washed and lysed with RIPA. Protein samples were detected by western blot as described previously ([Zheng et al., 2021]).
# [4] = tested on: OS-RC-2 cell; assay: MTT cell growth inhibition, OS-RC-2; assay type: cell-based; details: read-out: OS-RC-2 cell proliferation IC50
# Description: (§3) According to the previously reported method ([Namwan et al., 2022]; [Zhao et al., 2023]), at a concentration of 5 × 10^4/ml, cell lines were planted in 96-well plates and cultivated for an entire night. The cells were incubated at 37 °C for 72 h while being exposed to various inhibitor concentrations. And then, MTT stock solution (5 mg/ml) was added to each well and incubated for an additional 4 h. Dimethyl sulfoxide (DMSO) was used to dissolve the insoluble crystals, and a microplate reader was used to detect absorbance at 570 nm. Survival ratio (%) was calculated using the following equation: survival ratio (%) = (A treatment /A control ) × 100%. Data were analyzed using the analysis software GraphPad Prism 6.0 software (GraphPad Software Inc., San Diego, CA), and the half-maximal inhibitory concentration (IC50) values were calculated by the dose-response curve visualized using nonlinear regression (curve fit).
# [5] = tested on: HCT-116 tumor cells; assay: In vivo anticancer activity, HCT-116 xenograft; details: six times; for tumor volume versus control group: HCT-116 xenograft, nude mice
# Description: According to the previously reported in vivo inhibition method, we injected HCT-116 tumor cells (200 μl, 1 × 10^7 cells) into the right subcutaneous space of 6-week-old BALB/c nude mice (Experimental Animal Center of Yangzhou University (Yangzhou, China) ([Zheng et al., 2021]). All experimental protocols were approved by the Animal Ethics Committee of China Pharmaceutical University. When the tumors grew to 90–120 mm^3, the mice were randomly divided into three groups (five mice per group) and intraperitoneally administered with vehicle (PBS buffer pH 7.4, volume capacity: 0.2 ml), compound HS-2 (volume capacity: 0.2 ml in PBS vehicle, 5 mg/kg), and compound HS-2 (volume capacity: 0.2 ml in PBS vehicle, 10 mg/kg) every 3 days for a total of six times. Tumor volume and weight were measured every 3 days. Tumor volume was calculated using the formula (c × c × d)/2 (c, the smallest diameter; d, the largest diameter).
# [6] = tested on: 769-P cell; assay: MTT cell growth inhibition, 769-P; assay type: cell-based; details: 72 h, read-out: 769-P cell proliferation IC50
# Description: as §3
# [7] = tested on: SPOP and HDAC levels in HCT-116 cells; assay: Western blot of SPOP and HDAC levels in HCT-116 cells; assay type: cell-based; details: HCT-116 cells, 0, 0.5 and 2 μM, 72 h
# Description: as §2
# [8] = FP, 10 μM SPOP, 50 nM FITC-puc_SBC1, triplicate
# [9] = 5 and 10 mg/kg intraperitoneally every 3 days
smiles,measurement,setting,value
Cc1cccn2c(=O)c3cc(ONCCCCCC(=O)NO)c(=N)n(CCc4cccs4)c3nc12 [HS-1],IC50,[1]; triplicate,0.0137 ± 0.0011 µM
same,IC50,[2]; [8],18.3 ± 2.5 µM
Cc1cccn2c(=O)c3cc(ONCCCCCC(=O)NO)c(=N)n(CCc4ccc(C(F)(F)F)cc4)c3nc12 [HS-2],IC50,[1]; triplicate,0.0076 ± 0.0004 µM
same,HDAC1 inhibitory effect relative to Vorinostat (IC50 ratio),[1]; versus positive control Vorinostat,about 1.1 times
same,HDAC level (western blot),[3],reduced
same,SPOP level (western blot),[3],reduced
same,IC50,[4]; 72 h,9.3 ± 1.7 µM
same,IC50,"[4]; Homo sapiens, OS-RC-2, 72 h",< 10 µM
same,tumor volume versus control group,[5]; 5 mg/kg intraperitoneally every 3 days,significantly less tumor volume than the control group
same,tumor volume versus control group,[5]; 10 mg/kg intraperitoneally every 3 days,significantly less tumor volume than the control group
same,body weight of mice,[5]; [9],no significant differences
same,toxicity in vivo,[5]; [9],no significant toxicity
same,IC50,[6],5.2 ± 1.1 µM
same,IC50,"[6]; Homo sapiens, 769-P",< 10 µM
same,IC50,[2]; [8],9.1 ± 0.7 µM
same,SPOP inhibitory effect relative to SPOP-IN-6b (IC50 ratio),[2]; versus positive control SPOP-IN-6b,~3.8 times
same,HDAC level (western blot),[7],reduced
same,SPOP level (western blot),[7],reduced
Cc1cccn2c(=O)c3cc(ONCCCCCC(=O)NO)c(=N)n(CCc4ccc(Cl)c(F)c4)c3nc12 [HS-3],IC50,[1]; triplicate,0.0115 ± 0.0013 µM
same,IC50,[2]; [8],14.9 ± 1.2 µM
CCN(CC)CCn1c(=N)c(ONCCCCCC(=O)NO)cc2c(=O)n3cccc(C)c3nc21 [HS-4],IC50,[1]; triplicate,0.0184 ± 0.0019 µM
same,IC50,[2]; [8],23.2 ± 2.7 µM
"Cc1cccn2c(=O)c3cc(C(=O)NCCCN4CCOCC4)c(=N)n(CCc4ccccc4)c3nc12 [SPOP-IN-6b, reference compound]","HDAC1 (IC50, nM)",[1]; triplicate,without an inhibitory effect on HDAC1; also recorded: no binding
same,IC50,[2]; [8],34.6 ± 3.1 µM
"O=C(CCCCCCC(=O)Nc1ccccc1)NO [Vorinostat, reference compound]","SPOP (IC50, μM)",[2]; [8],without affecting SPOP activity; also recorded: no binding
